# Measured values published in patent publication US11076594B2, “Pyrazolone compound or salt thereof, preparation method therefor, herbicide composition and use thereof” (QINGDAO KINGAGROOT CHEMICAL COMPOUNDS CO., LTD., priority 2015, dated 2021).
# Key:
# Assay type in all cases: in vivo
# [1] = test system: wheat; assay: post-emergence stage experiment, crop (Table 1); details: post-emergence spray at 4-5 leaf stage, 250 g/ha active ingredient with 450 kg/ha water, rated after 3 weeks in greenhouse
# Outline: (§1)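 Post-emergence spray: compounds dissolved in acetone, Tween 80 added, diluted with water, applied to plants at 4-5 leaf stage. Plants kept 3 wk in greenhouse; activity scored as fresh-weight control rate.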
# [2] = test system: corn; assay: post-emergence stage experiment, crop (Table 1); details: post-emergence spray at 4-5 leaf stage, 250 g/ha active ingredient with 450 kg/ha water, rated after 3 weeks in greenhouse
# Outline: as §1
# [3] = test system: rice (japonica rice); assay: transplanted rice safety evaluation; details: 125 g/ha ai; treated 5 days after transplantation; 21 days after treatment
# Method: The activity level standard of harmful plant destruction (i.e. growth control rate) is as follows: In addition, the rice field soil that loaded into the 1/1,000,000 ha pot was leveled to keep water storage at 3-4 cm depth. The 3 leaf stage rice (japonica rice) was transplanted at 3 cm of transplanting depth the next day. The compound of the present invention was treated by the same way after 5 days of transplantation. The fertility condition of echinochloa, scirpus juncoides, bidens tripartite and sagittaria trifolia 14 days after the treatment of the compound of the invention and the fertility condition of rice 21 days after the treatment of the compound of the invention respectively with the naked eye.
# [4] = test system: foxtail; assay: weed control effect in post-emergence stage (Table 1); set-up: key: Level 10: completely dead; Level 9: above 95% growth control rate; Level 8: above 90% growth control rate; Level 7: above 80% growth control rate; Level 6: above 70% growth control rate; Level 5: above 60% growth control rate; Level 4: above 50% growth control rate; Level 3: above 20% growth control rate; Level 2: 5%-20% growth control rate; Level 1: below 5% growth control rate; details: post-emergence spray at 4-5 leaf stage, 250 g/ha active ingredient with 450 kg/ha water, rated after 3 weeks in greenhouse
# Outline: as §1
# [5] = test system: rorippa indica; assay: as above; set-up: key: Level 10: completely dead; Level 9: above 95% growth control rate; Level 8: above 90% growth control rate; Level 7: above 80% growth control rate; Level 6: above 70% growth control rate; Level 5: above 60% growth control rate; Level 4: above 50% growth control rate; Level 3: above 20% growth control rate; Level 2: 5%-20% growth control rate; Level 1: below 5% growth control rate; details: post-emergence spray at 4-5 leaf stage, 250 g/ha active ingredient with 450 kg/ha water, rated after 3 weeks in greenhouse
# Outline: as §1
# [6] = test system: Indian mallow; assay: as above; set-up: key: Level 10: completely dead; Level 9: above 95% growth control rate; Level 8: above 90% growth control rate; Level 7: above 80% growth control rate; Level 6: above 70% growth control rate; Level 5: above 60% growth control rate; Level 4: above 50% growth control rate; Level 3: above 20% growth control rate; Level 2: 5%-20% growth control rate; Level 1: below 5% growth control rate; details: post-emergence spray at 4-5 leaf stage, 250 g/ha active ingredient with 450 kg/ha water, rated after 3 weeks in greenhouse
# Outline: as §1
# [7] = test system: bidens bipinnata; assay: as above; set-up: key: Level 10: completely dead; Level 9: above 95% growth control rate; Level 8: above 90% growth control rate; Level 7: above 80% growth control rate; Level 6: above 70% growth control rate; Level 5: above 60% growth control rate; Level 4: above 50% growth control rate; Level 3: above 20% growth control rate; Level 2: 5%-20% growth control rate; Level 1: below 5% growth control rate; details: post-emergence spray at 4-5 leaf stage, 250 g/ha active ingredient with 450 kg/ha water, rated after 3 weeks in greenhouse
# Outline: as §1
# [8] = test system: echinochloa; assay: as above; set-up: key: Level 10: completely dead; Level 9: above 95% growth control rate; Level 8: above 90% growth control rate; Level 7: above 80% growth control rate; Level 6: above 70% growth control rate; Level 5: above 60% growth control rate; Level 4: above 50% growth control rate; Level 3: above 20% growth control rate; Level 2: 5%-20% growth control rate; Level 1: below 5% growth control rate; details: post-emergence spray at 4-5 leaf stage, 250 g/ha active ingredient with 450 kg/ha water, rated after 3 weeks in greenhouse
# Outline: as §1
# [9] = test system: crab grass; assay: as above; set-up: key: Level 10: completely dead; Level 9: above 95% growth control rate; Level 8: above 90% growth control rate; Level 7: above 80% growth control rate; Level 6: above 70% growth control rate; Level 5: above 60% growth control rate; Level 4: above 50% growth control rate; Level 3: above 20% growth control rate; Level 2: 5%-20% growth control rate; Level 1: below 5% growth control rate; details: post-emergence spray at 4-5 leaf stage, 250 g/ha active ingredient with 450 kg/ha water, rated after 3 weeks in greenhouse
# Outline: as §1
# [10] = test system: echinochloa; assay: weed control effect evaluation in rice field; set-up: key: Level 10: completely dead; Level 9: above 95% growth control rate; Level 8: above 90% growth control rate; Level 7: above 80% growth control rate; Level 6: above 70% growth control rate; Level 5: above 60% growth control rate; Level 4: above 50% growth control rate; Level 3: above 20% growth control rate; Level 2: 5%-20% growth control rate; Level 1: below 5% growth control rate; details: 125 g/ha ai; rice field pot; 14 days after treatment; resistant to pyrazosulfuron-ethyl
# From the text: (§2) The activity level standard of harmful plant destruction (i.e. growth control rate) is as follows: Rice field soil was loaded into a 1/1,000,000 ha pot. The seeds of echinochloa, scirpus juncoides, bidens tripartite and sagittaria trifolia were sowed and gently covered with soil, then left to stand still in greenhouse in the state of 0.5-1 cm of water storage. The tuber of sagittaria trifolia was planted in the next day or 2 days later. It was kept at 3-4 cm of water storage thereafter. The weeds were treated by dripping the WP or SC water diluents prepared according to the common preparation method of the compounds of the present invention with pipette homogeneously to achieve specified effective amount when echinochloa, scirpus juncoides and bidens tripartite reached 0.5 leaf stage and sagittaria trifolia reached the time point of primary leaf stage. The fertility condition of echinochloa, scirpus juncoides, bidens tripartite and sagittaria trifolia 14 days after the treatment of the compound of the invention and the fertility condition of rice 21 days after the treatment of the compound of the invention respectively with the naked eye.
# [11] = test system: bidens tripartite; assay: weed control effect evaluation in rice field; set-up: key: Level 10: completely dead; Level 9: above 95% growth control rate; Level 8: above 90% growth control rate; Level 7: above 80% growth control rate; Level 6: above 70% growth control rate; Level 5: above 60% growth control rate; Level 4: above 50% growth control rate; Level 3: above 20% growth control rate; Level 2: 5%-20% growth control rate; Level 1: below 5% growth control rate; details: 125 g/ha ai; rice field pot; 14 days after treatment; resistant to pyrazosulfuron-ethyl
# From the text: as §2
# [12] = test system: scirpus juncoides; assay: weed control effect evaluation in rice field; set-up: key: Level 10: completely dead; Level 9: above 95% growth control rate; Level 8: above 90% growth control rate; Level 7: above 80% growth control rate; Level 6: above 70% growth control rate; Level 5: above 60% growth control rate; Level 4: above 50% growth control rate; Level 3: above 20% growth control rate; Level 2: 5%-20% growth control rate; Level 1: below 5% growth control rate; details: 125 g/ha ai; rice field pot; 14 days after treatment; resistant to pyrazosulfuron-ethyl
# From the text: as §2
# [13] = test system: sagittaria trifolia; assay: weed control effect evaluation in rice field; set-up: key: Level 10: completely dead; Level 9: above 95% growth control rate; Level 8: above 90% growth control rate; Level 7: above 80% growth control rate; Level 6: above 70% growth control rate; Level 5: above 60% growth control rate; Level 4: above 50% growth control rate; Level 3: above 20% growth control rate; Level 2: 5%-20% growth control rate; Level 1: below 5% growth control rate; details: 125 g/ha ai; rice field pot; 14 days after treatment; resistant to pyrazosulfuron-ethyl
# From the text: as §2
# [14] = test system: rice; assay: post-emergence stage experiment, crop (Table 1); details: post-emergence spray at 4-5 leaf stage, 250 g/ha active ingredient with 450 kg/ha water, rated after 3 weeks in greenhouse
# Outline: as §1
SMILES,"effect on crop, Wheat (level) [1]","effect on crop, Corn (level) [2]","Rice (activity level, transplanted rice safety) [3]","weed control effect, Green foxtail (level) [4]","weed control effect, Rorippa indica (level) [5]","weed control effect, Indian mallow (level) [6]","weed control effect, Bidens bipinnata (level) [7]","weed control effect, Echinochloa (level) [8]","weed control effect, Crab grass (level) [9]",Echinochloa weed control effect (activity level) [10],Bidens tripartite weed control effect (activity level) [11],Scirpus juncoides weed control effect (activity level) [12],Sagittaria trifolia weed control effect (activity level) [13],"effect on crop, Rice (level) [14]"
CCOc1c(C(=O)Oc2c(C(=O)c3ccc(C(F)(F)F)c(-n4cccn4)c3Cl)cnn2C)cnn1C [Compound 065],3 (Level 3: above 20% growth control rate),9 (Level 9: above 95% growth control rate),3 (Level 3: above 20% growth control rate),10,9 (Level 9: above 95% growth control rate),9 (Level 9: above 95% growth control rate),7 (Level 7: above 80% growth control rate),7 (Level 7: above 80% growth control rate),8 (Level 8: above 90% growth control rate),9 (Level 9: above 95% growth control rate),8 (Level 8: above 90% growth control rate),9 (Level 9: above 95% growth control rate),9 (Level 9: above 95% growth control rate),3 (Level 3: above 20% growth control rate)
CCn1nc(C)c(C(=O)c2ccc(C(F)(F)F)c(-n3cccn3)c2Cl)c1O [Compound 128],0,0,1 (Level 1: below 5% growth control rate),10,7 (Level 7: above 80% growth control rate),3 (Level 3: above 20% growth control rate),6 (Level 6: above 70% growth control rate),10,1 (Level 1: below 5% growth control rate),10,6 (Level 6: above 70% growth control rate),10,8 (Level 8: above 90% growth control rate),5 (Level 5: above 60% growth control rate)
